# Assay results from ChEMBL document CHEMBL5653610, “The novel phosphodiesterase 10A inhibitor THPP-1 has antipsychotic-like effects in rat and improves cognition in rat and rhesus monkey” (Neuropharmacology, 2013).
# The source made the active and inactive calls. The rule behind the calls is not given here.
# Legend:
# [1] = Protein binding in orally dosed dog plasma after 2 hrs by UPLC-MS analysis; type: ADME, organism-based, Canis lupus familiaris; conditions: route po, read-out: PPB (converted)
# [2] = system: Rattus norvegicus; experiment: Reduction in object exploration in Wistar Hannover rat at 1 mg/kg, po dosed 90 mins before identical objects by novel object recognition test; type: functional, organism-based
# [3] = Unbound drug level in Wistar Hannover rat plasma at 1 mg/kg, po after 2 hrs by UPLC-MS analysis; type: ADME, organism-based; conditions: in vivo
# [4] = Drug level in Wistar Hannover rat CSF at 30 mg/kg, po after 2 hrs by UPLC-MS analysis; type: ADME, organism-based, Cerebrospinal fluid; conditions: read-out: Drug uptake
# [5] = Drug level in Wistar Hannover rat CSF at 0.1 mg/kg, po after 2 hrs by UPLC-MS analysis; type: ADME, organism-based, Cerebrospinal fluid; conditions: read-out: Drug uptake
# [6] = system: Rhesus monkey; experiment: Antipsychotic activity in rhesus monkey assessed as attenuation of ketamine impaired performance on difficult trials at 3 mg/kg, po dosed for 4 days prior to testing and on day 5 drug was administered orally 2 h prior to testing by object retrieval detour task; type: functional, organism-based; conditions: Macaca mulatta, time 4.0 day
# [7] = Protein binding in orally dosed rat plasma after 2 hrs by UPLC-MS analysis; type: ADME, organism-based; conditions: route po, read-out: PPB (converted)
# [8] = Drug level in Wistar Hannover rat CSF at 0.3 mg/kg, po after 2 hrs by UPLC-MS analysis; type: ADME, organism-based, Cerebrospinal fluid; conditions: read-out: Drug uptake
# [9] = system: Rhesus monkey; experiment: Antipsychotic activity in rhesus monkey assessed as blocking of ketamine impaired performance on difficult trials at 3 mg/kg, po dosed for 4 days prior to testing and on day 5 drug was administered orally 2 h prior to testing by object retrieval detour task; type: functional, organism-based; conditions: Macaca mulatta, time 5.0 day
# [10] = Total drug level in Wistar Hannover rat plasma at 30 mg/kg, po after 2 hrs by UPLC-MS analysis; type: ADME, organism-based
# [11] = Drug level in Wistar Hannover rat CSF at 10 mg/kg, po after 2 hrs by UPLC-MS analysis; type: ADME, organism-based, Cerebrospinal fluid; conditions: read-out: Drug uptake
# [12] = system: Rattus norvegicus; experiment: Effect on concentration of cyclic nucleotides in Wistar Hannover rat striatal tissues at 3 to 30 mg/kg, po by Western blot analysis; type: functional, organism-based; conditions: Striatum, dose 3-30 mg/kg
# [13] = Total drug level in Wistar Hannover rat plasma at 0.3 mg/kg, po after 2 hrs by UPLC-MS analysis; type: ADME, organism-based
# [14] = Drug level in Wistar Hannover rat CSF at 1 mg/kg, po after 2 hrs by UPLC-MS analysis; type: ADME, organism-based, Cerebrospinal fluid; conditions: read-out: Drug uptake
# [15] = Bioavailability in orally dosed dog after 2 hrs by UPLC-MS analysis; type: ADME, organism-based, Canis lupus familiaris; conditions: in vivo, route po
# [16] = Protein binding in orally dosed rhesus monkey plasma after 4 hrs by UPLC-MS analysis; type: ADME, organism-based, Macaca mulatta; conditions: route po, read-out: PPB (converted)
# [17] = Total drug level in Wistar Hannover rat plasma at 3 mg/kg, po after 2 hrs by UPLC-MS analysis; type: ADME, organism-based
# [18] = system: Rattus norvegicus; experiment: Antipsychotic activity in Wistar Hannover rat assessed as reduction in conditioned avoidance responding at 1 to 3 mg/kg, po dosed 120 mins before testing; type: functional, organism-based; conditions: dose 1-3 mg/kg
# [19] = system: Rattus norvegicus; experiment: In-vivo increase of CREB phosphorylation in membrane fraction of Wistar Hannover rat striatal tissues at 10 mg/kg, po after 2 hrs by Western blot analysis relative to control; type: functional, Striatum
# [20] = system: Rattus norvegicus; experiment: Effect on total levels of GluR1 protein in membrane fraction of Wistar Hannover rat striatal tissues at 3 to 30 mg/kg, po by Western blot analysis; type: functional, organism-based; conditions: Striatum, dose 3-30 mg/kg
# [21] = Unbound drug level in Wistar Hannover rat plasma at 0.1 mg/kg, po after 2 hrs by UPLC-MS analysis; type: ADME, organism-based; conditions: in vivo
# [22] = system: Rattus norvegicus; experiment: In-vivo increase of pGluR1/GluR1 ratios in membrane fraction of Wistar Hannover rat striatal tissues at 3 to 30 mg/kg, po after 2 hrs by Western blot analysis; type: functional, organism-based; conditions: Striatum, dose 3-30 mg/kg
# [23] = Clearance in orally dosed rat after 2 hrs by UPLC-MS analysis; type: ADME, organism-based; conditions: in vivo, route po
# [24] = Half life in orally dosed dog after 2 hrs by UPLC-MS analysis; type: ADME, organism-based, Canis lupus familiaris; conditions: in vivo, route po
# [25] = Unbound drug level in plasma of Wistar Hannover rat engaged in object retrieval detour task at 3 mg/kg, po dosed for 4 days prior to testing and on day 5 drug was administered orally 2 h prior to testing and measured after 4 hrs by UPLC-MS analysis; type: ADME, organism-based; conditions: in vivo, 120 h, time 5 day
# [26] = system: Rattus norvegicus; experiment: Antipsychotic activity in Wistar Hannover rat assessed as reduction in MK-801-induced psychomotor activity at 1.5 to 4.5 mg/kg, po dosed 120 mins before MK-801 challenge and measured after 180 mins; type: functional, organism-based; conditions: dose 1.5-4.5 mg/kg, time 300.0 min
# [27] = Bioavailability in orally dosed rat after 2 hrs by UPLC-MS analysis; type: ADME, organism-based; conditions: in vivo, route po
# [28] = Half life in orally dosed rhesus monkey after 4 hrs by UPLC-MS analysis; type: ADME, organism-based, Macaca mulatta; conditions: in vivo, route po
smiles,measurement,setting,value
COCCOc1nc(-c2ccc(Cl)nc2)nc2c1CN(C(=O)c1ncn3ccccc13)CC2 [THPP-1],fraction unbound at 2 h,[1],0.03
same,Activity,[2],Active
same,Cp(f),[3],4.9 nM
same,concentration at 2 h,[4],20.1 nM
same,concentration at 2 h,[5],1 nM
same,Activity,[6],Active
same,fraction unbound at 2 h,[7],0.018
same,concentration at 2 h,[8],3 nM
same,Activity,[9],inactive
same,concentration at 2 h,[10],1800 nM
same,concentration at 2 h,[11],16.1 nM
same,Activity,[12],inactive
same,concentration at 2 h,[13],117 nM
same,concentration at 2 h,[14],4.2 nM
same,bioavailability,[15],79%
same,fraction unbound at 4 h,[16],0.012
same,concentration at 2 h,[17],745 nM
same,Activity,[18],Dose-Dependent Effect
same,fold change (FC),[19],2.3
same,Activity,[20],inactive
same,Cp(f),[21],0.6 nM
same,Activity,[22],Active
same,CL/F,[23],6 mL/min/kg
same,half-life,[24],7.2 h
same,Cp(f),[25],7 nM
same,Activity,[26],Dose-Dependent Effect
same,bioavailability,[27],47%
same,half-life,[28],1.4 h
